# Measured values taken from ChEMBL document CHEMBL5230103, “Hydroxamic acid hybrids as the potential anticancer agents: An Overview” (Eur J Med Chem, 2020).
# Experiments:
# [1] = tested on: T98G; assay: Cytotoxicity against human T98G cells assessed as inhibition of cell growth by MTT assay; format: functional, cell-based
# [2] = Cytotoxicity against human U87 cells assessed as inhibition of cell growth by MTT assay; format: functional, cell-based, U-87MG ATCC; conditions: U-87 MG
# [3] = tested on: U-251; assay: Cytotoxicity against human U-251 cells assessed as inhibition of cell growth by MTT assay; format: functional, cell-based
# [4] = tested on: MCF7; assay: Cytotoxicity against human MCF7 cells assessed as inhibition of cell growth by SRB assay; format: functional, cell-based
# [5] = biological target: Histone deacetylase; assay: Inhibition of HDAC (unknown origin); format: protein assay, Homo sapiens
# [6] = tested on: PC-3; assay: Cytotoxicity against human PC-3 cells assessed as inhibition of cell growth by SRB assay; format: functional, cell-based
# [7] = tested on: MV4-11; assay: Cytotoxicity against human MV4-11 cells assessed as inhibition of cell growth by SRB assay; format: functional, cell-based
# [8] = tested on: K562; assay: Cytotoxicity against human K562 cells assessed as inhibition of cell growth by SRB assay; format: functional, cell-based
# [9] = tested on: MOLT-4; assay: Cytotoxicity against human MOLT-4 cells assessed as inhibition of cell growth by SRB assay; format: functional, cell-based
# [10] = tested on: Raji; assay: Cytotoxicity against human Raji cells assessed as inhibition of cell growth by SRB assay; format: functional, cell-based
# [11] = tested on: Ramos; assay: Cytotoxicity against human Ramos cells assessed as inhibition of cell growth by SRB assay; format: functional, cell-based
# [12] = tested on: SU-DHL-6; assay: Cytotoxicity against human SU-DHL-6 cells assessed as inhibition of cell growth by SRB assay; format: functional, cell-based
# [13] = tested on: HepG2; assay: Cytotoxicity against human HepG2 cells assessed as inhibition of cell growth by SRB assay; format: functional, cell-based
# [14] = tested on: Huh-7; assay: Cytotoxicity against human Huh-7 cells assessed as inhibition of cell growth by SRB assay; format: functional, cell-based
# [15] = tested on: PLC-PRF-5; assay: Cytotoxicity against human PLC-PRF-5 cells assessed as inhibition of cell growth by SRB assay; format: functional, cell-based
# [16] = tested on: SK-HEP1; assay: Cytotoxicity against human SK-HEP1 cells assessed as inhibition of cell growth by SRB assay; format: functional, cell-based
# [17] = tested on: SNU-387; assay: Cytotoxicity against human SNU-387 cells assessed as inhibition of cell growth by SRB assay; format: functional, cell-based
# [18] = tested on: SNU-398; assay: Cytotoxicity against human SNU-398 cells assessed as inhibition of cell growth by SRB assay; format: functional, cell-based
# [19] = Toxicity in BALB/c mouse assessed as maximum tolerated dose; conditions: in vivo
# [20] = Oral bioavailability in BALB/c mouse at 200 mg/kg; format: ADME, organism-based; conditions: in vivo
# [21] = tested on: K562; assay: Cytotoxicity against human K562 cells assessed as inhibition of cell growth by MTT assay; format: functional, cell-based
# [22] = tested on: PC-3; assay: Cytotoxicity against human PC-3 cells assessed as inhibition of cell growth by MTT assay; format: functional, cell-based
# [23] = tested on: HCT-116; assay: Cytotoxicity against human HCT-116 cells assessed as inhibition of cell growth by MTT assay; format: functional, cell-based
# [24] = tested on: HT-29; assay: Cytotoxicity against human HT-29 cells assessed as inhibition of cell growth by MTT assay; format: functional, cell-based
# [25] = tested on: SW-620; assay: Cytotoxicity against human SW620 cells assessed as inhibition of cell growth by MTT assay; format: functional, cell-based
# [26] = biological target: cGMP-specific 3',5'-cyclic phosphodiesterase (Homo sapiens, UniProt O76074); assay: Inhibition of PDE5 (unknown origin)
# [27] = tested on: MOLT-4; assay: Cytotoxicity against human MOLT-4 cells assessed as inhibition of cell growth by MTT assay; format: functional, cell-based
# [28] = tested on: SUP-T1; assay: Cytotoxicity against human SUP-T1 cells assessed as inhibition of cell growth by MTT assay; format: functional, cell-based
# [29] = tested on: AGS; assay: Cytotoxicity against human AGS cells assessed as inhibition of cell growth by MTT assay; format: functional, cell-based
# [30] = tested on: LNCaP; assay: Cytotoxicity against human LNCaP cells assessed as inhibition of cell growth by MTT assay; format: functional, cell-based
# [31] = tested on: T47D; assay: Cytotoxicity against human T47D cells assessed as inhibition of cell growth by MTT assay; format: functional, cell-based
smiles,measurement,setting,value
O=C(CCCCCNC(=O)c1cc(O)c2c(c1)C(=O)c1cccc(O)c1C2=O)NO,IC50,[1],5.5 µM
same,IC50,[2],5.5 µM
same,IC50,[3],5.5 µM
CC(C)n1cnc2c(-c3cccc(OCCCCC(=O)NO)c3)nc(N3CCOCC3)nc21,IC50,[4],160 nM
same,IC50,[5],35 nM
same,IC50,[6],160 nM
same,IC50,[7],160 nM
same,IC50,[8],160 nM
same,IC50,[9],160 nM
same,IC50,[10],160 nM
same,IC50,[11],160 nM
same,IC50,[12],160 nM
same,IC50,[13],160 nM
same,IC50,[14],160 nM
same,IC50,[15],160 nM
same,IC50,[16],160 nM
same,IC50,[17],160 nM
same,IC50,[18],160 nM
same,MTD,[19],200 mg/kg
same,bioavailability,[20],62%
O=C(CCCCCN1CCN2[C@H](Cc3c([nH]c4ccccc34)[C@H]2c2ccc(Br)cc2)C1)NO,IC50,[21],1500 nM
same,IC50,[22],1500 nM
same,IC50,[23],1500 nM
same,IC50,[24],1500 nM
same,IC50,[5],14.5 nM
same,IC50,[25],1500 nM
same,IC50,[26],46.3 nM
same,IC50,[27],1500 nM
same,IC50,[28],1500 nM
same,IC50,[29],1500 nM
same,IC50,[30],1500 nM
same,IC50,[31],1500 nM
